Results published in ChEMBL document CHEMBL5442663, “ASAP - Solubility” (2024).
In brackets after ≈: the same amount, converted by molar mass. Several values for one entry are separate records, joined by “and”; a condition that tells them apart may be missing. Equal values may be shown once.

Experiment: Kinetic solubility of compound by measuring concentration at pH 7.4 in saturated PBS buffer by UV LCMS/MS using calibration curves. The assay has been performed by Enamine biological services, Bienta Ltd.The protocol is publicly available: dx.doi.org/10.17504/protocols.io.j8nlk8y41l5r/v1
Assay type: physicochemical
Details: for solubility kinetic: PBS buffer; for Solubility (mean): buffer

solubility kinetic [µM]	Solubility (mean)	SMILES
385 (≈ 143 µg/mL)	386 µM (≈ 143 µg/mL)	CC(C)[C@@H](Nc1ncnc2[nH]ccc12)c1ccc2c(c1)S(=O)(=O)CCC2
392 (≈ 195 µg/mL)		CC(C)[C@@H](Nc1ncnc2[nH]c(C(=O)N[C@H]3CCN(C)C3)cc12)c1ccc2c(c1)S(=O)(=O)CCC2
328 (≈ 145 µg/mL)		CCNC(=O)c1cc2c(N[C@@H](c3ccc4c(c3)S(=O)(=O)CCO4)C(C)C)ncnc2[nH]1
63 (≈ 29.3 µg/mL)		Cc1nn(C)cc1-c1cc2c(N[C@@H](c3ccc4c(c3)S(=O)(=O)CCC4)C(C)C)ncnc2[nH]1
336 (≈ 148 µg/mL)	316 µM (≈ 140 µg/mL)	CCNC(=O)c1cc2c(N[C@@H](c3ccc4c(c3)S(=O)(=O)CCC4)C(C)C)ncnc2[nH]1
25 (≈ 11.1 µg/mL)	24 µM (≈ 10.7 µg/mL)	Cn1ncc(-c2cc3c(N[C@@H](c4ccc5c(n4)OCCO5)C(C)(C)C)ncnc3[nH]2)c1C#N
380 (≈ 145 µg/mL)		CNC(=O)c1cc2c(N[C@@H](c3ccc4c(c3)OCCO4)C(C)C)ncnc2[nH]1
15 (≈ 7.55 µg/mL)		CNC(=O)c1cccc(-c2cc3c(N[C@@H](c4ccc5c(c4)S(=O)(=O)CCC5)C(C)C)ncnc3[nH]2)c1
338 (≈ 167 µg/mL)		CC(C)[C@H](Nc1ncnc2[nH]c(-c3cnn(CC(N)=O)c3)cc12)c1ccc2c(c1)S(=O)(=O)CCC2
65 (≈ 30.2 µg/mL)		Cc1nn(C)cc1-c1cc2c(N[C@H](c3ccc4c(c3)S(=O)(=O)CCC4)C(C)C)ncnc2[nH]1
392 (≈ 195 µg/mL)		CC(C)[C@@H](Nc1ncnc2[nH]c(C(=O)N[C@@H]3CCN(C)C3)cc12)c1ccc2c(c1)S(=O)(=O)CCC2
105 (≈ 47.4 µg/mL)		CC(C)[C@@H](Nc1ncnc2[nH]c(-c3cnn(C)c3)cc12)c1ccc2c(c1)S(=O)(=O)NCC2
22 (≈ 10.5 µg/mL)		CC(C)[C@H](Nc1ncnc2[nH]c(-c3cnn(C)c3C#N)cc12)c1ccc2c(c1)S(=O)(=O)CCC2
321 (≈ 154 µg/mL)	345 µM (≈ 165 µg/mL)	CNCc1cc(-c2cc3c(N[C@@H](c4ccc5c(c4)S(=O)(=O)CCC5)C(C)C)ncnc3[nH]2)co1
89 (≈ 41.1 µg/mL)		CC(C)(C)[C@H](Nc1ncnc2[nH]c(-c3cnn(CC(N)=O)c3)cc12)c1ccc2c(c1)OCCO2
358 (≈ 172 µg/mL)		CNCc1cc(-c2cc3c(N[C@H](c4ccc5c(c4)S(=O)(=O)CCC5)C(C)C)ncnc3[nH]2)co1
28 (≈ 12.4 µg/mL)		CC(C)[C@H](Nc1ncnc2[nH]c(-c3cnn(C)c3C#N)cc12)c1ccc2c(n1)NC(=O)CO2
372 (≈ 179 µg/mL)		CNCc1cc(-c2cc3c(N[C@@H](c4ccc5c(c4)S(=O)(=O)NCC5)C(C)C)ncnc3[nH]2)co1
372 (≈ 139 µg/mL)		CC(C)[C@@H](Nc1ncnc2[nH]ccc12)c1ccc2c(c1)S(=O)(=O)CCO2
389 (≈ 131 µg/mL)	374 µM (≈ 126 µg/mL)	CC(C)[C@@H](Nc1ncnc2[nH]ccc12)c1ccc2c(c1)NC(=O)CO2
395 (≈ 144 µg/mL)		COc1ccc([C@@H](Cc2nnn[nH]2)NC(=O)c2ncnc3[nH]ccc23)cc1
26 (≈ 11.5 µg/mL)		CC(C)[C@H](Nc1ncnc2[nH]c(-c3cnn(C)c3C#N)cc12)c1ccc2c(c1)NC(=O)CO2
344 (≈ 152 µg/mL)		CCNC(=O)c1cc2c(N[C@@H](c3ccc4c(c3)S(=O)(=O)NCC4)C(C)C)ncnc2[nH]1
111 (≈ 50 µg/mL)		CC(C)[C@H](Nc1ncnc2[nH]c(-c3cnn(C)c3)cc12)c1ccc2c(c1)S(=O)(=O)CCC2
306 (≈ 155 µg/mL)	294 µM (≈ 149 µg/mL)	CNC(=O)Cn1cc(-c2cc3c(N[C@@H](c4ccc5c(c4)S(=O)(=O)CCC5)C(C)C)ncnc3[nH]2)cn1

solubility kinetic [µM]	Solubility (mean)	SMILES
89 (≈ 38.3 µg/mL)	60 µM and 50 µM	CC(C)[C@@H](Nc1ncnc2[nH]c(-c3cnn(C)c3C#N)cc12)c1ccc2c(n1)OCCO2
53 (≈ 22.8 µg/mL)		CC(C)[C@H](Nc1ncnc2[nH]c(-c3cnn(C)c3C#N)cc12)c1ccc2c(n1)OCCO2
17 (≈ 7.3 µg/mL)	20 µM (≈ 8.59 µg/mL)	CC(C)[C@@H](Nc1ncnc2[nH]c(-c3cnn(C)c3C#N)cc12)c1ccc2c(c1)OCCO2
374 (≈ 139 µg/mL)		CC(C)[C@H](Nc1ncnc2[nH]ccc12)c1ccc2c(c1)S(=O)(=O)CCC2
257 (≈ 117 µg/mL)	216 µM (≈ 98 µg/mL)	CC(C)[C@@H](Nc1ncnc2[nH]cc(C(=O)NC3CC3)c12)c1ccc2c(c1)S(=O)(=O)CCC2
6 (≈ 3.01 µg/mL)		CC(C)[C@@H](Nc1ncnc2[nH]c(-c3ccc4nnn(C)c4c3)cc12)c1ccc2c(c1)S(=O)(=O)CCC2
94 (≈ 42.4 µg/mL)	111 µM (≈ 50 µg/mL)	CC(C)[C@@H](Nc1ncnc2[nH]c(-c3cnn(C)c3)cc12)c1ccc2c(c1)S(=O)(=O)CCC2
385 (≈ 173 µg/mL)	395 µM (≈ 177 µg/mL)	CC(C)[C@@H](Nc1ncnc2[nH]c(-c3cnn(CC(N)=O)c3)cc12)c1ccc2c(n1)OCCO2
236 (≈ 109 µg/mL)		CC(C)[C@@H](Nc1ncnc2[nH]c(-c3cnn(CCC(N)=O)c3)cc12)c1ccc2c(c1)OCCO2
323 (≈ 164 µg/mL)		CNC(=O)Cn1cc(-c2cc3c(N[C@H](c4ccc5c(c4)S(=O)(=O)CCC5)C(C)C)ncnc3[nH]2)cn1
14 (≈ 6.81 µg/mL)		CC(C)[C@@H](Nc1ncnc2[nH]c(-c3ccc4cncn4c3)cc12)c1ccc2c(c1)S(=O)(=O)CCC2
31 (≈ 16.3 µg/mL)		CC(C)[C@@H](Nc1ncnc2[nH]c(-c3cncc(S(C)(=O)=O)c3)cc12)c1ccc2c(c1)S(=O)(=O)CCC2
341 (≈ 168 µg/mL)	335 µM (≈ 165 µg/mL)	CC(C)[C@@H](Nc1ncnc2[nH]c(-c3cnn(CC(N)=O)c3)cc12)c1ccc2c(c1)S(=O)(=O)CCC2
369 (≈ 158 µg/mL)	397 µM (≈ 170 µg/mL)	CNC(=O)c1cc2c(N[C@@H](c3ccc4c(c3)S(=O)(=O)CCC4)C(C)C)ncnc2[nH]1
13 (≈ 6.55 µg/mL)		CNC(=O)c1cccc(-c2cc3c(N[C@H](c4ccc5c(c4)S(=O)(=O)CCC5)C(C)C)ncnc3[nH]2)c1
210 (≈ 99.9 µg/mL)	205 µM (≈ 97.5 µg/mL)	CC(C)[C@@H](Nc1ncnc2[nH]c(-c3cnn(CC(=O)N(C)C)c3)cc12)c1ccc2c(c1)OCCO2
29 (≈ 12.9 µg/mL)	28 µM (≈ 12.4 µg/mL)	CC(C)[C@@H](Nc1ncnc2[nH]c(-c3cnn(C)c3C#N)cc12)c1ccc2c(n1)NC(=O)CO2
34 (≈ 16.2 µg/mL)	26 µM (≈ 12.4 µg/mL)	CC(C)[C@@H](Nc1ncnc2[nH]c(-c3cnn(C)c3C#N)cc12)c1ccc2c(c1)S(=O)(=O)CCC2
336 (≈ 144 µg/mL)		CNC(=O)c1c[nH]c2ncnc(N[C@H](c3ccc4c(c3)S(=O)(=O)CCC4)C(C)C)c12
25 (≈ 11.1 µg/mL)		Cn1ncc(-c2cc3c(N[C@@H](c4ccc5c(c4)OCCO5)C(C)(C)C)ncnc3[nH]2)c1C#N
263 (≈ 104 µg/mL)		CCNC(=O)c1cc2c(N[C@H](c3ccc4c(c3)OCCO4)C(C)C)ncnc2[nH]1
345 (≈ 154 µg/mL)	332 µM (≈ 149 µg/mL)	CC(C)[C@@H](Nc1ncnc2[nH]c(-c3cnn(CC(N)=O)c3)cc12)c1ccc2c(c1)OCCO2
289 (≈ 133 µg/mL)		CNC(=O)Cn1cc(-c2cc3c(N[C@@H](c4ccc5c(c4)OCCO5)C(C)C)ncnc3[nH]2)cn1
386 (≈ 156 µg/mL)		C[C@@H](C(=O)O)[C@@H](NC(=O)c1ncnc2[nH]ccc12)c1ccc(Br)cc1
195 (≈ 90 µg/mL)	104 µM (≈ 48 µg/mL)	CC(C)(C)[C@@H](Nc1ncnc2[nH]c(-c3cnn(CC(N)=O)c3)cc12)c1ccc2c(c1)OCCO2

solubility kinetic [µM]	Solubility (mean)	SMILES
319 (≈ 122 µg/mL)		CNC(=O)c1c[nH]c2ncnc(N[C@@H](c3ccc4c(c3)OCCO4)C(C)C)c12
390 (≈ 167 µg/mL)	204 µM (≈ 87.2 µg/mL)	CNC(=O)c1c[nH]c2ncnc(N[C@@H](c3ccc4c(c3)S(=O)(=O)CCC4)C(C)C)c12
≥ 400		CC(C)[C@H](CO)Nc1ncnc2[nH]ccc12
280 (≈ 125 µg/mL)		CC(C)[C@H](Nc1ncnc2[nH]c(-c3cnn(CC(N)=O)c3)cc12)c1ccc2c(c1)OCCO2
375 (≈ 138 µg/mL)		CC(C)[C@@H](Nc1ncnc2[nH]cc(C(N)=O)c12)c1ccc2c(c1)OCCO2
28 (≈ 11 µg/mL)		CNC(=O)c1c[nH]c2ncnc(N[C@@H](c3ccc4c(c3)NC(=O)CO4)C(C)C)c12
319 (≈ 138 µg/mL)		O=C(Nc1ccccc1)Nc1ccc(C(=O)NC2c3cccc(O)c3CC2C(=O)O)cc1 (stereo not given)
372 (≈ 172 µg/mL)		CC(C)(C)[C@H](Nc1ncnc2[nH]c(-c3cnn(CC(N)=O)c3)cc12)c1ccc2c(n1)OCCO2
374 (≈ 160 µg/mL)		CNC(=O)c1cc2c(N[C@H](c3ccc4c(c3)S(=O)(=O)CCC4)C(C)C)ncnc2[nH]1
377 (≈ 169 µg/mL)		CC(C)[C@H](Nc1ncnc2[nH]c(-c3cnn(CC(N)=O)c3)cc12)c1ccc2c(n1)OCCO2
396 (≈ 197 µg/mL)		CC(C)[C@H](Nc1ncnc2[nH]c(C(=O)N[C@H]3CCN(C)C3)cc12)c1ccc2c(c1)S(=O)(=O)CCC2
378 (≈ 178 µg/mL)		COCCNC(=O)c1c[nH]c2ncnc(N[C@@H](c3ccc4c(c3)S(=O)(=O)CCC4)C(C)C)c12
≥ 400		CC(C)[C@@H](Nc1ncnc(N)c1Cl)c1ccc2c(c1)S(=O)(=O)CCC2
25 (≈ 11.5 µg/mL)		CC(C)[C@@H](Nc1ncnc2[nH]c(-c3cnn(CC(N)=O)c3)cc12)c1ccc2c(c1)NC(=O)CO2
19 (≈ 8.62 µg/mL)		CC(C)[C@H](Nc1ncnc2[nH]cc(C(=O)NC3CC3)c12)c1ccc2c(c1)S(=O)(=O)CCC2
372 (≈ 147 µg/mL)	380 µM (≈ 150 µg/mL)	CNC(=O)c1cc2c(N[C@@H](c3ccc4c(c3)NC(=O)CO4)C(C)C)ncnc2[nH]1
371 (≈ 125 µg/mL)		CC(C)[C@H](Nc1ncnc2[nH]ccc12)c1ccc2c(c1)NC(=O)CO2
≥ 400		COc1ccc([C@@H](NC(=O)c2[nH]cnc3nccc2-3)C(C)c2nnn[nH]2)cc1 (stereo not given in full)
≥ 400		COc1ccc([C@@H](CC(=O)O)NC(=O)c2ncnc3[nH]ccc23)cc1
361 (≈ 188 µg/mL)		CC(C)[C@H](Nc1ncnc2[nH]c(-c3cnn(CC(=O)N(C)C)c3)cc12)c1ccc2c(c1)S(=O)(=O)CCC2
366 (≈ 182 µg/mL)		CC(C)[C@H](Nc1ncnc2[nH]c(C(=O)N[C@@H]3CCN(C)C3)cc12)c1ccc2c(c1)S(=O)(=O)CCC2
14 (≈ 4.51 µg/mL)		COc1ccc2c(c1)CCN(c1ncnc3[nH]ccc13)[C@H]2C(C)C
15 (≈ 6.44 µg/mL)		CC(C)[C@H](Nc1ncnc2[nH]c(-c3cnn(C)c3C#N)cc12)c1ccc2c(c1)OCCO2
≥ 400		O=C(Nc1cccc2c(C(=O)N[C@@H]3c4ccccc4C[C@@H]3C(=O)O)c[nH]c12)NC1CC1
337 (≈ 149 µg/mL)		CCNC(=O)c1cc2c(N[C@H](c3ccc4c(c3)S(=O)(=O)CCC4)C(C)C)ncnc2[nH]1
